Patent publication US7473688B2, “Indolobenzazepine HCV NS5B inhibitors” (Bristol-Myers Squibb Company, priority 2005, dated 2009)
pEC50, pIC50: −log10 of the molar value. Like-named read-outs stand apart in the source and are kept apart here.

Assays:
HCV NS5B = target: T1, HCV NS5B (Hepatitis C virus genotype 1b, UniProt Q9WMX2); assay: HCV NS5B RdRp enzyme assay (preincubation protocol); format: biochemical
T1 construct: The protein was expressed with an 18 amino acid C-terminal truncation to enhance the solubility; made in house; host or cells: E. coli BL21 (DE3), pET21a
T1 sequence (Q9WMX2 2420-2992): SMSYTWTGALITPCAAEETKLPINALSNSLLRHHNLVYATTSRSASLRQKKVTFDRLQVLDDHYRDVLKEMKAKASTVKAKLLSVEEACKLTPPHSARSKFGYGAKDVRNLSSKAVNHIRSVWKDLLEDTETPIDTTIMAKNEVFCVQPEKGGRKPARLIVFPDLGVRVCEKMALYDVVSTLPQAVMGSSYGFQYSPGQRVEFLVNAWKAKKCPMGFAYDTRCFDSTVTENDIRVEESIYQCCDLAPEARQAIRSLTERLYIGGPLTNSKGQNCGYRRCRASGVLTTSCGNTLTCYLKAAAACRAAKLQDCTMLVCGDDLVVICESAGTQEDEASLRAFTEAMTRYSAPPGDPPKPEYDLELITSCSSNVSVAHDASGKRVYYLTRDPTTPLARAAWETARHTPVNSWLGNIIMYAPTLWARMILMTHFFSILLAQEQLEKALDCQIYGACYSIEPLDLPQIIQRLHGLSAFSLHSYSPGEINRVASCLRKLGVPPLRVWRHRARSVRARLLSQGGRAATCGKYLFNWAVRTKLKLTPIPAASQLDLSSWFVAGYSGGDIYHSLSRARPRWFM
Summary of the method: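 Preincubation format: enzyme (14 nM, genotype 1b, 18-residue C-terminal truncation) meets diluted compound first; reaction started with bead-bound biotinylated dT12 primer, polyA template 0.2 nM and 0.29 μM 3H-UTP. Run 4 h, 30 °C in Hepes pH 7.5; scintillation proximity signal; IC50 fitted from seven inhibitor levels.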

HCV replicon = HCV replicon FRET assay; format: cell-based; settings: Hepatitis C virus, FRET assay, read-out: EC50*
Summary of the method: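 HCV replicon cells, with or without Renilla luciferase reporter, incubated with titrated compounds at 37 °C; Alamar blue read for cytotoxicity. NS3 protease activity read from lysates with 20 μM EDANS/DABCYL FRET peptide (340/490 nm, kinetic), or by Dual-Glo luciferase. Background from highest protease-inhibitor wells; EC50 = 50% signal reduction.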

Compound	pIC50 (HCV NS5B; Table 1b, read-out: IC50*)	pEC50 (HCV replicon; Table 1b)	pIC50 (HCV NS5B; Table 1, read-out: IC50*)	pEC50 (HCV replicon; Table 1)	also measured
COc1ccc2c(c1)C=C(C(=O)N(C)Cc1ccccn1)Cn1c-2c(C2CCCCC2)c2ccc(C(=O)NS(=O)(=O)N(C)C)cc21	6.00 to 7.70	6.00 to 7.52	–	–	–
COc1ccc2c(c1)C=C(C(=O)N1CCN(CCOCCO)CC1)Cn1c-2c(C2CCCCC2)c2ccc(C(=O)NS(=O)(=O)N(C)C)cc21	6.00 to 7.70	6.00 to 7.52	–	–	–
COc1ccc2c(c1)CC(C(=O)N1CC(N(C)C)C1)Cn1c-2c(C2CCCCC2)c2ccc(C(=O)NS(=O)(=O)N(C)C)cc21 (centres unmarked)	6.00 to 7.70	6.00 to 7.52	–	–	–
COc1ccc2c(c1)C=C(C(=O)O)Cn1c-2c(C2CCCCC2)c2ccc(C(=O)NS(=O)(=O)N3CCN(C(C)=O)CC3)cc21	6.00 to 7.70	< 5.00	–	–	–
COc1ccc2c(c1)C=C(C(=O)N[C@@H]1C3CCC(C)([C@@H]1O)C3(C)C)Cn1c-2c(C2CCCCC2)c2ccc(C(=O)NS(=O)(=O)N(C)C)cc21 (some centres unmarked)	6.00 to 7.70	6.00 to 7.52	–	–	–
COc1ccc2c(c1)C=C(C(=O)N1CCN(c3ccccn3)CC1)Cn1c-2c(C2CCCCC2)c2ccc(C(=O)NS(=O)(=O)N(C)C)cc21	6.00 to 7.70	6.00 to 7.52	–	–	–
COc1ccc2c(c1)C=C(C(=O)N1CCN(c3ncccn3)CC1)Cn1c-2c(C2CCCCC2)c2ccc(C(=O)NS(=O)(=O)N(C)C)cc21	> 7.70	6.00 to 7.52	–	–	–
COc1ccc2c(c1)CC(C(=O)N1CCN(CCOCCO)CC1)Cn1c-2c(C2CCCCC2)c2ccc(C(=O)NS(=O)(=O)N(C)C)cc21 (centres unmarked)	6.00 to 7.70	6.00 to 7.52	–	–	–
COc1ccc2c(c1)C=C(C(=O)N1CCN(C(=O)C(C)(C)O)CC1)Cn1c-2c(C2CCCCC2)c2ccc(C(=O)NS(=O)(=O)N(C)C)cc21	6.00 to 7.70	6.00 to 7.52	–	–	–
CON(C)S(=O)(=O)NC(=O)c1ccc2c(C3CCCCC3)c3n(c2c1)CC(C(=O)N1CCOCC1)=Cc1ccccc1-3 [drawing 100]	–	–	6.00 to 8.00	6.00 to 7.15	–
COc1ccc2c(c1)C=C(C(=O)N1CCOCC1)Cn1c-2c(C2CCCCC2)c2ccc(C(=O)NS(=O)(=O)N3CCOCC3)cc21 [drawing 102]	–	–	6.00 to 8.00	6.00 to 7.15	–
C[C@@H]1CN(CCNC(=O)C2=Cc3ccccc3-c3c(C4CCCCC4)c4ccc(C(=O)NS(=O)(=O)N(C)C)cc4n3C2)C[C@H](C)O1 [drawing 130]	–	–	6.00 to 8.00	6.00 to 7.15	–
CN(C)S(=O)(=O)NC(=O)c1ccc2c(C3CCCCC3)c3n(c2c1)CC(C(=O)N1CCC(N2CCOCC2)CC1)=Cc1cc(OCc2ccccc2)ccc1-3 [drawing 135]	–	–	6.00 to 8.00	6.00 to 7.15	–
CN(C)S(=O)(=O)NC(=O)c1ccc2c(C3CCCCC3)c3n(c2c1)CC(C(=O)N1CCCC(=O)N1)=Cc1ccccc1-3 [drawing 138]	–	–	6.00 to 8.00	6.00 to 7.15	–
CN(C)S(=O)(=O)NC(=O)c1ccc2c(C3CCCCC3)c3n(c2c1)CC(NC(=O)N1CCOCC1)Cc1ccccc1-3 (centres unmarked) [drawing 141]	–	–	6.00 to 8.00	6.00 to 7.15	–
C[C@@H]1CN(C(=O)NC2Cc3ccccc3-c3c(C4CCCCC4)c4ccc(C(=O)O)cc4n3C2)C[C@H](C)O1 (some centres unmarked) [drawing 143]	–	–	6.00 to 8.00	6.00 to 7.15	–
CC(=O)NN(C)C(=O)C1=Cc2ccccc2-c2c(C3CCCCC3)c3ccc(C(=O)O)cc3n2C1 [drawing 154]	–	–	6.00 to 8.00	5.00 to 6.00	–
COc1ccc2c(c1)C=C(C(=O)N(C)CC(=O)N(C)C)Cn1c-2c(C2CCCCC2)c2ccc(C(=O)NS(=O)(=O)N(C)C)cc21 [drawing 162]	–	–	6.00 to 8.00	6.00 to 7.15	–
CN(C)S(=O)(=O)NC(=O)c1ccc2c(C3CCCCC3)c3n(c2c1)CC(C(=O)N1CCC(F)CC1)=Cc1ccccc1-3 [drawing 196]	–	–	6.00 to 8.00	6.00 to 7.15	–
O=C(NCc1cnn[nH]1)c1ccc2c(C3CCCCC3)c3n(c2c1)CC(C(=O)N1CCC(N2CCOCC2)CC1)=Cc1ccccc1-3 [drawing 203]	–	–	6.00 to 8.00	5.00 to 6.00	–
CN(C)S(=O)(=O)NC(=O)c1ccc2c(C3CCCCC3)c3n(c2c1)CC(C(=O)N1CCCC(=O)N1)=Cc1ccccc1-3 [drawing 236]	–	–	–	–	pIC50 (HCV NS5B; Table 1a, read-out: IC50*): 6.00 to 8.00; pEC50 (HCV replicon; Table 1a): 6.00 to 7.52
COc1ccc2c(c1)C=C(C(=O)N1CCOCC1)Cn1c-2c(C2CCCCC2)c2ccc(C(=O)NS(=O)(=O)N3CCOCC3)cc21 [drawing 237]	–	–	–	–	pIC50 (HCV NS5B; Table 1a, read-out: IC50*): 6.00 to 8.00; pEC50 (HCV replicon; Table 1a): 6.00 to 7.52
